Among the data in patent US20230096766A1, “AMINO ACID HAVING FUNCTIONAL GROUP CAPABLE OF INTERMOLECULAR HYDROGEN BONDING, PEPTIDE COMPOUND CONTAINING SAME AND METHOD FOR PRODUCTION THEREOF” (Chugai Seiyaku Kabushiki Kaisha, priority 2018, published 2023) are Papp values, retold here.

*1 amine or outer side, *2 acyl side, *3 side chain or, on linkers, in order; H or OH if unused. Where a SMILES comes first, the peptide text is derived from it. Bridges are numbered along the chain shown (N, C = ends). [ ]: non-standard residue; d: D form. The star is where a group is joined. ξ: configuration not given here. X5 = O=C([C@H](CCC[C@@H]1CC(F)(F)CN1)N[*:1])[*:2]; CH2(1,2,4-oxadiazolon-3-yl) = O=c1[nH]c(C*)no1; Phe(4-COOH) = N[C@@H](Cc1ccc(C(=O)O)cc1)C(=O)O; NMePhe(3-Cl) = CN[C@@H](Cc1cccc(Cl)c1)C(=O)O; X4 = O=C(C(CCc1noc(=O)[nH]1)N[*:1])[*:2]; Pro(4,4-F2)ψ(CH2) = FC1(F)CN[C@H](C*)C1; NMeF = CN[C@@H](Cc1ccccc1)C(=O)O; NMeGABA = CN(CCCC(=O)[*:2])[*:1]; NMeI = CC[C@H](C)[C@H](NC)C(=O)O; NMeL = CN[C@@H](CC(C)C)C(=O)O; Butyl(3R-OH) = C[C@@H](O)CC*; Propyl(2R-OH) = C[C@@H](O)C*; NMeV = CN[C@H](C(=O)O)C(C)C; NMeAbu = CC[C@H](NC)C(=O)O; NMeA = CN[C@@H](C)C(=O)O; Piperidide = C1CCN(*)CC1; CH2CONHMe = CNC(=O)C*; NBuGly = CCCCNCC(=O)O; NPrGly = CCCNCC(=O)O; ξS = NC(CO)C(=O)O; N(OH)Me = CN(O)*; Sar = CNCC(=O)O; tBu = CC(C)(C)*

One data set is described as follows: Membrane permeability test of cyclic peptides (Caco-2, modified/improved method of WO 2018/124162). Particulars: human, Caco-2, Caco-2 (cm/sec), membrane permeability of cyclic peptides, Caco-2. (Caco-2 monolayers are a common model of the intestinal barrier.)
Usually Papp stands for the rate of passage across a membrane or cell layer, normalised by area and donor concentration. The low end stands for poor permeation, the high end for ready permeation. `CC(C)C[C@@H]1NC(=O)[C@H](C(C)C)N(C)C(=O)C[C@@H](C(=O)N2CCCCC2)NC(=O)[C@H](CC(C)C)N(C)C(=O)CN(C)C(=O)[C@H]([C@@H](C)O)NC(=O)[C@H](C(C)C)N(C)C(=O)[C@H](Cc2ccccc2)N(C)C(=O)[C@H](COCC[C@@H](C)O)NC(=O)[C@H](Cc2ccccc2)N(C)C(=O)[C@H](CC(C)C)N(C)C1=O` [AP113] ([NMeV]L[NMeL][NMeF]S(Butyl(3R-OH))[NMeF][NMeV]T[Sar][NMeL]D-Piperidide; lactam N-11) yielded a Papp of 1.7 ×10⁻⁶ cm/s.
Same read-out and setting: the value for `CCCCN1CC(=O)N(C)[C@@H](CC(C)C)C(=O)NC(COCc2noc(=O)[nH]2)C(=O)N(C)[C@@H](CC(C)C)C(=O)N(C)[C@@H](CC(C)C)C(=O)N[C@H](C(=O)N2CCCCC2)CC(=O)N[C@H](C(C)C)C(=O)N(C)[C@@H](Cc2ccccc2)C(=O)N[C@@H](CC(C)C)C(=O)N(C)[C@@H](CC(C)C)C(=O)N[C@@H]([C@@H](C)O)C1=O` (stereo partly drawn) [AP43] ([dV][NMeF]L[NMeL]T[NBuGly][NMeL][ξS](CH2(1,2,4-oxadiazolon-3-yl))[NMeL][NMeL]D-Piperidide; lactam N-11) was 0.82 ×10⁻⁶ cm/s; that for `CCCCN1CC(=O)N(C)[C@@H](Cc2cccc(Cl)c2)C(=O)N(C)[C@@H](CC(C)C)C(=O)N[C@@H](COCc2noc(=O)[nH]2)C(=O)N(C)[C@@H](CC(C)C)C(=O)N[C@H](C(=O)N2CCCCC2)CC(=O)N(C)CC(=O)N(C)[C@@H](CC(C)C)C(=O)N[C@@H]([C@@H](C)CC)C(=O)N(C)[C@@H](CC(C)C)C(=O)N[C@@H]([C@@H](C)O)C1=O` [AP50] ([Sar][NMeL]I[NMeL]T[NBuGly][NMePhe(3-Cl)][NMeL]S(CH2(1,2,4-oxadiazolon-3-yl))[NMeL]D-Piperidide; lactam N-11) was 0.11 ×10⁻⁶ cm/s; that for `CC[C@H](C)[C@@H]1NC(=O)[C@H](CC(C)C)N(C)C(=O)[C@H](COC(C)(C)C)NC(=O)[C@H](Cc2ccccc2)N(C)C(=O)[C@H](Cc2ccccc2)N(C)C(=O)[C@H](COC[C@@H](C)O)NC(=O)[C@H](CC(C)C)N(C)C(=O)CCCN(C)C(=O)C[C@@H](C(=O)N2CCCCC2)NC(=O)[C@H](CC(C)C)N(C)C(=O)[C@H](CC(C)C)N(C)C1=O` [AP84] ([NMeGABA][NMeL]S(Propyl(2R-OH))[NMeF][NMeF]S(tBu)[NMeL]I[NMeL][NMeL]D-Piperidide; lactam N-11) was 0.58 ×10⁻⁶ cm/s.
Still for that read-out and setting: the value for `CC[C@H](C)[C@H]1C(=O)N[C@@H]([C@@H](C)O)C(=O)N(C)CC(=O)N(C)[C@@H](CC)C(=O)N[C@H](C(=O)N2CCCCC2)CC(=O)N(C)[C@@H](CC(C)C)C(=O)N[C@@H](Cc2ccc(C(=O)N(C)O)cc2)C(=O)N(C)[C@@H](CC(C)C)C(=O)N(C)[C@@H](Cc2ccccc2)C(=O)N[C@@H](CC(C)C)C(=O)N(C)[C@@H](CC(C)C)C(=O)N1C` [AP252] ([NMeL][Phe(4-COOH)](N(OH)Me)[NMeL][NMeF]L[NMeL][NMeI]T[Sar][NMeAbu]D-Piperidide; lactam N-11) was 0.13 ×10⁻⁶ cm/s; that for `CCCCN1CC(=O)N(C)[C@@H](CC(C)C)C(=O)N[C@H](C(=O)N2CCCCC2)CC(=O)N(C)[C@@H](CC)C(=O)N[C@@H](CC(C)C)C(=O)N(C)[C@@H](CC(C)C)C(=O)N(C)[C@@H](Cc2ccccc2)C(=O)NC(COCc2noc(=O)[nH]2)C(=O)N(C)[C@@H](CC(C)C)C(=O)N(C)[C@@H](CC(C)C)C(=O)N[C@@H]([C@@H](C)O)C1=O` (stereo partly drawn) [AP47] ([NMeAbu]L[NMeL][NMeF][ξS](CH2(1,2,4-oxadiazolon-3-yl))[NMeL][NMeL]T[NBuGly][NMeL]D-Piperidide; lactam N-11) was 5.3 ×10⁻⁶ cm/s.

Still in this data set, the particulars now being: human, Caco-2, Caco-2 (membrane permeability), Table 10, cyclic peptides containing Ser(S-4-F2-Pyrro-Me) (G) or Nva(2-R-4-F2-Pyrro) (H).
Take `CC[C@H](C)[C@@H]1NC(=O)[C@H](CC(C)C)N(C)C(=O)CCCN(C)C(=O)C[C@@H](C(=O)N2CCCCC2)NC(=O)[C@H](CC(C)C)N(C)C(=O)[C@H](CC(C)C)N(C)C(=O)[C@H]([C@@H](C)O)NC(=O)[C@H](CC(C)C)N(C)C(=O)[C@H](COC[C@@H]2CC(F)(F)CN2)NC(=O)[C@H](CC(C)C)N(C)C(=O)[C@H](Cc2ccccc2)N(C)C1=O` [Compound G03] ([NMeGABA][NMeL]I[NMeF][NMeL]S(Pro(4,4-F2)ψ(CH2))[NMeL]T[NMeL][NMeL]D-Piperidide; lactam N-11): the apparent permeability coefficient (Papp) worked out at 0.23 ×10⁻⁶ cm/s.
In the case of `CCCCN1CC(=O)N(C)[C@@H](CC(C)C)C(=O)N[C@H](C(=O)N2CCCCC2)CC(=O)N(C)[C@@H](CC)C(=O)N[C@@H](CC(C)C)C(=O)N(C)[C@@H](CC(C)C)C(=O)N(C)[C@@H](Cc2ccccc2)C(=O)N[C@@H](COC[C@@H]2CC(F)(F)CN2)C(=O)N(C)[C@@H](CC)C(=O)N(C)[C@@H](CC(C)C)C(=O)N[C@@H]([C@@H](C)O)C1=O` [Compound G04] ([NMeAbu]L[NMeL][NMeF]S(Pro(4,4-F2)ψ(CH2))[NMeAbu][NMeL]T[NBuGly][NMeL]D-Piperidide; lactam N-11), the apparent permeability coefficient (Papp) was 1.8 ×10⁻⁶ cm/s.
In turn, `CC(C)C[C@@H]1NC(=O)[C@H](C)N(C)C(=O)C[C@@H](C(=O)N2CCCCC2)NC(=O)[C@H](CC(C)C)N(C)C(=O)CN(C)C(=O)[C@H](CCC[C@@H]2CC(F)(F)CN2)NC(=O)[C@H](CC(C)C)N(C)C(=O)[C@H](CC(C)C)N(C)C(=O)[C@H](CC(C)C)NC(=O)[C@H](Cc2ccccc2)N(C)C(=O)[C@H](C)N(C)C1=O` [Compound H10] ([NMeA]L[NMeA][NMeF]L[NMeL][NMeL][X5][Sar][NMeL]D-Piperidide; lactam N-11) yielded a Papp of 0.43 ×10⁻⁶ cm/s.
Still for that read-out and setting: the value for `CCCCN1CC(=O)N(C)[C@@H](CC(C)C)C(=O)N[C@@H](COC(C)(C)C)C(=O)N(C)[C@@H](Cc2ccccc2)C(=O)N(C)[C@@H](C)C(=O)N[C@H](C(=O)N2CCCCC2)CC(=O)N[C@H](C)C(=O)N(C)[C@@H](CC)C(=O)N[C@@H](C(C)C)C(=O)N(C)[C@@H](CC(C)C)C(=O)N[C@@H](CCC[C@@H]2CC(F)(F)CN2)C1=O` [Compound H08] ([dA][NMeAbu]V[NMeL][X5][NBuGly][NMeL]S(tBu)[NMeF][NMeA]D-Piperidide; lactam N-11) was 0.92 ×10⁻⁶ cm/s; that for `CC(C)C[C@H]1C(=O)N[C@@H](C(C)C)C(=O)N(C)[C@@H](Cc2ccccc2)C(=O)N(C)[C@@H](C)C(=O)N[C@@H](COC(C)(C)C)C(=O)N(C)[C@@H](CC(C)C)C(=O)N[C@@H](CCC[C@@H]2CC(F)(F)CN2)C(=O)N(C)[C@@H](CC(C)C)C(=O)N(C)[C@@H](CC(C)C)C(=O)N[C@H](C(=O)N2CCCCC2)CC(=O)N(C)CCCC(=O)N1C` [Compound H09] ([NMeGABA][NMeL]V[NMeF][NMeA]S(tBu)[NMeL][X5][NMeL][NMeL]D-Piperidide; lactam N-11) was 0.52 ×10⁻⁶ cm/s.

Still in this data set, the particulars now being: human, Caco-2, Caco-2 (membrane permeability), Table 12, cyclic peptides containing Ser(NMe-Aca) (I) or Gln(Me) (J).
Regarding `CCCN1CC(=O)N(C)[C@@H](CC(C)C)C(=O)N[C@@H](CC(C)C)C(=O)N(C)[C@@H](Cc2ccccc2)C(=O)N(C)[C@@H](CC(C)C)C(=O)N[C@H](C(=O)N2CCCCC2)CC(=O)N[C@H](CC(C)C)C(=O)N(C)[C@@H](Cc2ccccc2)C(=O)N[C@@H](COCC(=O)NC)C(=O)N(C)[C@@H](CC(C)C)C(=O)N[C@@H]([C@@H](C)O)C1=O` [Compound I01] ([dL][NMeF]S(CH2CONHMe)[NMeL]T[NPrGly][NMeL]L[NMeF][NMeL]D-Piperidide; lactam N-11), the Papp worked out at 0.27 ×10⁻⁶ cm/s.

Staying with this data set, now noted: human, Caco-2, Caco-2, Papp, membrane permeability; cyclic peptides comprising MeAbu(pip-4-F2), MeAbu(Mor), Ser(Et-2-Mor), MeAbu(pip-3-F2) or Abu(5-Oxo-Odz) (Table 29).
The compound `CCCCN1CC(=O)N(C)[C@@H](CC(C)C)C(=O)N[C@H](C(=O)N2CCCCC2)CC(=O)N(C)[C@@H](CC)C(=O)N[C@@H](CC(C)C)C(=O)N(C)[C@@H](CC(C)C)C(=O)N(C)[C@@H](Cc2ccccc2)C(=O)NC(CCc2noc(=O)[nH]2)C(=O)N(C)[C@@H](CC(C)C)C(=O)N(C)[C@@H](CC(C)C)C(=O)N[C@@H]([C@@H](C)O)C1=O` (stereo partly drawn) [pd487] ([NMeAbu]L[NMeL][NMeF][X4][NMeL][NMeL]T[NBuGly][NMeL]D-Piperidide; lactam N-11) registered a Papp of 2.2 ×10⁻⁶ cm/s.
